Molecules are shown by their SMILES. Converted amounts (≈) assume the structure as drawn.

The test system of experiment [1] is Salmonella typhimurium and Salmonella worthington. Put plainly: Bioscreen growth in Lab-Lemco broth (Example 9A), Salmonella strains. It is filed as cell-based. The settings on record: 128 μg/ml, Lab-Lemco broth pH 6.0, 37° C. The protocol: (§1) […] […] Plates were then covered, incubated at 37° C., and the opacity of the organism suspensions measured using a Bioscreen instrument (a semi-automated microbiological growth analyser, available from Thermolabsystems, Ashford, Middlesex, U.K.).
(§2) The results are shown in FIG. 13, which is a graph of optical density against time (in hours). The optical density readings were taken in “wide band” (wb) mode, i.e. using white light without any filter.

Experiment [2] deals with Citrobacter freundii, Enterobacter aerogenes, Enterobacter cloacae. Put plainly: Bioscreen growth in Lab-Lemco broth (Example 9A), other strains. It is filed as cell-based. The settings on record: 128 μg/ml, Lab-Lemco broth pH 6.0, 37° C., other strains tested. As for the experimental part:
as §1, §2

The test system of experiment [3] is Salmonella typhimurium OCC 626. Put plainly: mixed culture viable count in Nutrient Broth No. 2 (Example 9B). It is filed as cell-based. The settings on record: 128 μg/ml, Nutrient Broth No. 2, mixed culture with Citrobacter, 37° C. The protocol: (§3) L-Pyroglutamyl-L-aminoethylphosphonate was added to Oxoid Nutrient Broth No. 2 (final concentration=128 μg/ml) contained in a universal tube in a water bath at 37° C. Citrobacter freundii OCC 370 and Salmonella typhimurium OCC 626 were grown overnight in Nutrient Broth No. 2 at 37° C., diluted 1 in 1000 in Maximal Recovery Diluent and amounts added to the Nutrient Broth to give final concentrations of about 10^4 cfu/ml of each organism. At intervals samples were taken and spread on XLD and the number of red colonies with black centres enumerated as Salmonella and yellow ones as Citrobacter.
(§4) The results are shown in FIG. 14, which is a graph of Log10 viable count (cfu/ml) against time (in hours). The plots for C. freundii are shown by lozenge symbols, whist those for S. typhimurium are shown by squares. Filled symbols and solid lines show results in the presence of Pyr-AEP, empty symbols and dotted lines show results in the absence of Pyr-AEP.

For experiment [4], the system named is Citrobacter freundii OCC 370. The description is as above. Type of experiment: cell-based. The settings on record: 128 μg/ml, Nutrient Broth No. 2, mixed culture with Salmonella, 37° C. The protocol: as §3, §4
The test system of experiment [5] is Salmonella virchow OCC703. Nature of the experiment: MIC from Bioscreen growth curves in various media (Example 13). It is filed as cell-based. As for the experimental part:
(§5) In general, media containing a higher concentration of short chain peptides, for example hydrolysed casein, reduced the effectiveness of the inhibitor. Thus, Pyr-AEP was dissolved in deionised water (51.2 mg/ml), filter sterilised, and amounts of the solution added to autoclaved Bacteriological Peptone, Casein Hydrolysate, Lab-Lemco broth and Proteose Peptone (20 g/l; pH 7.3) to give a dilution series of 1,477, 739, 369, 185 μg/ml. Volumes ([…]) of these solutions were then pipetted into the wells of Bioscreen microtitre plates and 30 μl quantities of 1 in 10,000 dilutions of overnight cultures of Citrobacter freundii OCC 261, Enterobacter aerogenes OCC 720, Salmonella enteritidis OCC 723 and Salmonella virchow OCC 703 added. Plates were then covered, incubated at 37° C., and the opacity of the organism suspensions, measured using a Bioscreen instrument.

Experiment [6] deals with Salmonella enteritidis OCC723. Described as above. It is filed as cell-based. As for the experimental part:
as §5

Experiment [7] relates to Citrobacter freundii OCC261. The description is as above. Type of experiment: cell-based. The protocol: as §5
Experiment [8] relates to Enterobacter aerogenes OCC720. Described as above. Type of experiment: cell-based. As for the experimental part:
as §5

The test system of experiment [9] is E. faecalis 640 and S. aureus 106. Put plainly: selective recovery of S. aureus on DMSal agar seeded with E. faecalis (Example 18). Type of experiment: cell-based, Enterococcus faecalis, Staphylococcus aureus. The settings on record: 20 μg/ml, DMSal agar with horse serum (50 ml/L), approximately 24 hours at 37° C. The protocol: The effectiveness of sulfacetamide-β-D-galactoside as a selective agent for recovery of S. aureus in the presence of E. faecalis was tested. Sulfacetamide-β-D-galactoside (20 μg/ml) and horse serum (50 ml/L) was added to DMSal agar to make the test plates; DMSal agar without sulfacetamide-β-D-galactoside served as the control. All plates (with and without sulfacetamide-β-D-galactoside) were seeded with E. faecalis 640 and half of the total number of plates (with and without sulfacetamide-β-D-galactoside) were streaked with S. aureus 106. All plates were incubated for approximately 24 hours at 37° C.
As FIGS. 22a and 22b show, all plates without sulfacetamide-β-D-galactoside supported growth of E. faecalis.

Consider `C[C@H](NC(=O)[C@@H]1CCC(=O)N1)P(=O)(O)O` [Pyr-AEP, L-pyroglutamyl-L-1-aminoethylphosphonic acid], for which the “growth (optical density) in presence of the agent” value in experiment [1] is “not inhibited”; in [2], “inhibited”. The “effect on growth (Log10 viable count)” value in experiment [3] was “no significant effect”; in experiment [4] it was “completely inhibitory”. For the same compound, the Minimum inhibitory concentration was 671 µg/mL (≈ 2.84 mM) in experiment [5] (Salmonella virchow OCC703, Bacteriological Peptone); above 1343 µg/mL in [5] (Salmonella virchow OCC703, Casein Hydrolysate); 1343 µg/mL (≈ 5.69 mM) in experiment [5] (Salmonella virchow OCC703, Lab-Lemco); 1343 µg/mL (≈ 5.69 mM) in experiment [5] (Salmonella virchow OCC703, Proteose Peptone); 671 µg/mL (≈ 2.84 mM) in experiment [6] (Salmonella enteritidis OCC723, Bacteriological Peptone); above 1343 µg/mL in experiment [6] (Salmonella enteritidis OCC723, Casein Hydrolysate). In addition, the Minimum inhibitory concentration in [6] (Salmonella enteritidis OCC723, Lab-Lemco) is 1343 µg/mL (≈ 5.69 mM); in [6] (Salmonella enteritidis OCC723, Proteose Peptone), 1343 µg/mL (≈ 5.69 mM); in experiment [7] (Citrobacter freundii OCC261, Bacteriological Peptone), 168 µg/mL (≈ 0.711 mM); in experiment [7] (Citrobacter freundii OCC261, Casein Hydrolysate) it was above 1343 µg/mL; in experiment [7] (Citrobacter freundii OCC261, Lab-Lemco) it was 168 µg/mL (≈ 0.711 mM); in [7] (Citrobacter freundii OCC261, Proteose Peptone) it was 1343 µg/mL (≈ 5.69 mM). Further, the Minimum inhibitory concentration in [8] (Enterobacter aerogenes OCC720, Bacteriological Peptone) was 671 µg/mL (≈ 2.84 mM); in experiment [8] (Enterobacter aerogenes OCC720, Casein Hydrolysate), above 1343 µg/mL; in [8] (Enterobacter aerogenes OCC720, Lab-Lemco), 336 µg/mL (≈ 1.42 mM); in experiment [8] (Enterobacter aerogenes OCC720, Proteose Peptone) it was above 1343 µg/mL.
For the compound `CC(=O)NS(=O)(=O)c1ccc(N[C@@H]2O[C@H](CO)[C@H](O)[C@H](O)[C@H]2O)cc1` [sulfacetamide-β-D-galactoside], the “colonies observed on plates seeded with E. faecalis and streaked with S. aureus” value in [9] is reported as “only colonies of S. aureus were observed”.
